Source: patent US9505729B2, “Isoxazole analogs as mediators of transcriptional induction of E-cadherin” (Vanderbilt University, priority 2014, dated 2016)

Test system: E-cadherin expression in SW620 cells
Experiment: In-cell Western (ICW) cell-based functional assay of E-cadherin expression in SW620 cells
Conditions: Homo sapiens, SW-620; for fold induction at 10 µM: change in expression level of E-cadherin in response to 10 μM compound, SW620 cells, 24 hours; for EC50: inducement of E-cadherin expression in SW620 cells
Method: SW620 and H520 cells (5×10^4/100 μL) were seeded in a 96-well plate prior to treatment. Cells were treated with 10 μM concentration of synthesized compound in quadruplicate for 24 hours in RPMI 1640 supplemented medium and 100 μg/mL penicillin-streptomycin. The cells were then fixed with 100% methanol for 20 minutes at 4° C. The wells were then washed 2 times with PBS, permeabilized in 2% bovine serum albumin (BSA) and 0.2% TritonX-100 in PBS for 30 minutes at room temperature with gentle agitation, and blocked in LI-COR blocking buffer for 30 minutes at room temperature with gentle agitation. The cells were then incubated with the following primary antibodies: anti-E-Cadherin (1:500) and anti-α-Tubulin (1:1000) diluted in blocking buffer (1:1 dilution in PBS) for 2 hours at room temperature with gentle agitation. The cells were washed 4 times in PBS-T for 5 minutes each, and then incubated with the following secondary antibodies conjugated to a fluorescent entity: IRDye 800-conjugated goat anti-rabbit IgG (1:1000) and IRDye-700-conjugated goat anti-mouse IgG (1:2000) in blocking buffer (1:1 dilution in PBS) with gentle agitation for 1 h at room temperature. The cells were washed 4 times in PBS-T for 5 minutes each followed by a single wash with PBS. All liquid was removed from the wells and the plates were visualized and analyzed on the Odyssey IR imaging system (LI-COR Biosciences).
The assay was further optimized in the following manner. The cells were washed 2 times with PBS, fixed in 100% methanol at room temperature for 15 minutes, and again washed 2 times with PBS. The cells were then incubated with the following primary antibodies: anti-E-Cadherin (1:200) and anti-α-Tubulin (1:2000) diluted in ice cold 2% bovine serum albumin (BSA) and 0.2% TritonX-100 in PBS for 1 hour at room temperature with gentle agitation. The cells were washed 2 times in PBS and then incubated with the following secondary antibodies conjugated to a fluorescent entity: Licor 800-conjugated goat anti-rabbit IgG (1:2000) and IRDye-700-conjugated goat anti-mouse IgG (1:2000) in ice cold 2% BSA and 0.2% TritonX-100 in PBS with gentle agitation for 45 minutes at room temperature. The wells were washed 2 times in PBS, dried, and analyzed as previously mentioned.
N-(3-(Arylamino)alkyl)-5-arylisoxazole-3-carboxamide analogs were synthesized as described above. Changes in expression level of E-cadherin in response to 10 μM compound in SW620 cells was determined in the cell-based functional assay as described above, and the data are shown in Table II. The compound number corresponds to the compound numbers used in Table I.
EC50 of inducement of E-cadherin expression in SW620 cells was determined in the cell-based functional assay as described above, and the data are shown in Table III. The compound number corresponds to the compound numbers used in Table I.

Row | EC50 [µM] | SMILES | fold induction at 10 µM
1 | 22.9 | O=C(NCCCNc1nccc(Cl)n1)c1cc(-c2ccccc2)[nH]n1 [Compound 38, N-(3-((4-chloropyrimidin-2-yl)amino)propyl)-5-phenyl-1H-pyrazole-3-carboxamide] | 7.36
2 | 5.32 | [N-]=[N+]=Nc1ccnc(NCCCNC(=O)c2cc(-c3ccccc3)[nH]n2)n1 [Compound 39, N-(3-((4-azidopyrimidin-2-yl)amino)propyl)-5-phenyl-1H-pyrazole-3-carboxamide] | 15.9
